The target in this assay is HPK1 (Homo sapiens (Human), UniProt Q92918). As to the kind of experiment: HPK1 Inhibition Assay (ADP-Glo kinase assay). The class given is biochemical. To be noted: ATP 10 μM. As to the method: A stock solution of 10 mM test compound was prepared in DMSO. The compound was prepared by 5-fold and 10-point serial dilutions with HPK1 kinase assay buffer. The HPK1 kinase assay buffer contained 40 mM Tris, pH 7.5; 20 mM MgCl2, 0.1 mg/ml BSA, and 50 μM DTT. 7.5 ng/μl of Active HPK1 (Promega, V4098) and 0.1 μg/ml MBP substrate protein were added to the reaction system. The final concentration of ATP in the HPK1 kinase reaction system was 10 μM. Serial diluted compounds were transferred to the reaction system and incubated at room temperature for 1 hr. 5 μL of ADP-Glo™ Reagent (Promega, V9101) was added and incubated for 40 min to stop the kinase reaction and deplete the unconsumed ATP. […] The luminescence was measured with a plate-reading luminometer.
Chain of HPK1 (Q92918 1-346 limits assumed): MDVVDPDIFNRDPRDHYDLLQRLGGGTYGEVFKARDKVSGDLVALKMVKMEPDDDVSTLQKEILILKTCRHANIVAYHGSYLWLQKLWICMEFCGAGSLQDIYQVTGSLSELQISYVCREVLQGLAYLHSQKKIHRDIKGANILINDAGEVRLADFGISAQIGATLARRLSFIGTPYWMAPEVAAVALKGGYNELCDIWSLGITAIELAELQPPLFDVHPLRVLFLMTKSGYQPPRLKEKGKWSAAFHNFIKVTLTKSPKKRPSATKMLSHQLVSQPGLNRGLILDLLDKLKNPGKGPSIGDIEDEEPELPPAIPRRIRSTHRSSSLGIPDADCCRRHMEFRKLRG
Turning to `Cn1c(C(C)(C)C)nc2c(N3CC[C@@](C)(N)C3)c(NC(=O)c3ccc(=O)n(-c4c(F)cccc4F)n3)ccc21` (single isomer, unassigned) [Example 100, ®-N-(4-(3-amino-3-methylpyrrolidin-1-yl)-2-(tert-butyl)-1-methyl-1H-benzo 111 midazolezol-5-yl)-1-(2,6-difluorophenyl)-6-oxo-1,6-dihydropyridazine-3-carboxamide], the IC50 (usually the point on the concentration scale where inhibition reaches its midpoint) was less than 100 nM.

On to `Cn1c(C(C)(C)C)nc2c(N3CC[C@@](C)(N)C3)c(NC(=O)c3ccc(=O)n(-c4c(F)cccc4F)n3)ccc21` (single isomer, unassigned) [Example 101], for which the IC50 was less than 100 nM.

Consider `CC(C)c1nc2c(N3CC[C@](N)(CO)C3)c(NC(=O)c3ccc(=O)n(-c4c(F)cccc4F)n3)ccc2n1C` (single isomer, unassigned) [Example 124], for which the concentration for half-maximal inhibition (IC50) was less than 100 nM.

The compound `CC(C)c1nc2c(N3CC[C@](N)(CO)C3)c(NC(=O)c3ccc(=O)n(-c4c(F)cccc4F)n3)ccc2n1C` (single isomer, unassigned) [Example 125] registered an IC50 of less than 100 nM.

The compound `CC(C)c1nc2c(N3CC[C@](N)(C(F)(F)F)C3)c(NC(=O)c3ccc(=O)n(-c4c(F)cccc4F)n3)ccc2n1C` (single isomer, unassigned) [Example 138] displayed an IC50 of less than 100 nM.

Compound `CC(C)c1nc2c(N3CC[C@](N)(C(F)(F)F)C3)c(NC(=O)c3ccc(=O)n(-c4c(F)cccc4F)n3)ccc2n1C` (single isomer, unassigned) [Example 139] returned an IC50 of less than 100 nM.

Take `CC[C@@H]1CN(c2c(NC(=O)c3ccc(=O)n(-c4c(F)cccc4F)n3)ccc3c2cnn3C(C)C)C[C@@H]1N` (single isomer, unassigned) [Example 196]: the IC50 is less than 100 nM.

With `CC[C@@H]1CN(c2c(NC(=O)c3ccc(=O)n(-c4c(F)cccc4F)n3)ccc3c2cnn3C(C)C)C[C@@H]1N` (single isomer, unassigned) [Example 197], the IC50 is less than 100 nM.

With `N[C@H]1CN(c2c(NC(=O)c3ccc(=O)n(-c4c(F)cccc4F)n3)ccc3nn(C4(C(F)(F)F)CC4)cc23)CC12CC2` (single isomer, unassigned) [Example 313], the IC50 is less than 100 nM.

The compound `CC1(C)CN(c2c(NC(=O)c3ccc(=O)n(-c4c(F)cccc4F)n3)ccc3nn(C4(C(F)(F)F)CC4)cc23)C[C@@H]1N` (single isomer, unassigned) [Example 314] registered a concentration for half-maximal inhibition (IC50) of less than 100 nM.

As for `C[C@]1(O)CCN(c2cc(-c3cnccc3C#N)ccc2NC(=O)c2ccc(=O)n(-c3c(F)cccc3F)n2)C1` (single isomer, unassigned) [Example 353], the IC50 is less than 100 nM.

`C[C@]1(O)CCN(c2cc(-c3cnccc3C#N)ccc2NC(=O)c2ccc(=O)n(-c3c(F)cccc3F)n2)C1` (single isomer, unassigned) [Example 354]: the IC50 was less than 100 nM.

Turning to `N#Cc1ccncc1-c1ccc(NC(=O)c2ccc(=O)n(-c3c(F)cccc3F)n2)c(N2CC[C@@](N)(CO)C2)c1` (single isomer, unassigned) [Example 355], the half-inhibitory concentration (IC50) is less than 100 nM.

The compound `N#Cc1ccncc1-c1ccc(NC(=O)c2ccc(=O)n(-c3c(F)cccc3F)n2)c(N2CC[C@@](N)(CO)C2)c1` (single isomer, unassigned) [Example 356] had an IC50 of less than 100 nM.

`N#Cc1ccncc1-c1ccc(NC(=O)c2ccc(=O)n(-c3c(F)cccc3F)n2)c(N2CC[C@](N)(C(F)(F)F)C2)c1` (single isomer, unassigned) [Example 358] registered an IC50 of less than 100 nM.

Compound `N#Cc1ccncc1-c1ccc(NC(=O)c2ccc(=O)n(-c3c(F)cccc3F)n2)c(N2CC[C@](N)(C(F)(F)F)C2)c1` (single isomer, unassigned) [Example 359] had an IC50 of less than 100 nM.

`COc1cccc(F)c1-c1nccc(C(=O)Nc2ccc3c(nc(C(F)F)n3C)c2N2CCC(N)C2)c1F` (stereo in doubt) [Example 164, N-(4-((S)-3-aminopyrrolidin-1-yl)-2-(difluoromethyl)-1-methyl-1H-benzo[d]imidazol-5-yl)-3-fluoro-2-(2-fluoro-6-methoxyphenyl)isonicotinamide]: the IC50 was less than 100 nM.

Compound `CO[C@@H]1CN(c2c(NC(=O)c3ccc(=O)n(-c4c(F)cccc4F)n3)ccc3c2cnn3C(C)C)C[C@H]1N` (stereo in doubt) [Example 200, N-(4-((3R,4R)-3-amino-4-methoxypyrrolidin-1-yl)-1-isopropyl-1H-indazol-5-yl)-1-(2,6-difluorophenyl)-6-oxo-1,6-dihydropyridazine-3-carboxamide] returned a 50% inhibitory concentration (IC50) of less than 100 nM.

Turning to `COc1cccc(F)c1-c1nccc(C(=O)Nc2cc(F)ccc2N2C[C@@H]3C[C@H]2CN3)c1F` [Example 1, N-(2-((1S,4S)-2,5-diazabicyclo[2.2.1]heptan-2-yl)-5-fluorophenyl)-3-fluoro-2-(2-fluoro-6-methoxyphenyl)isonicotinamide], the half-inhibitory concentration (IC50) lay in the range of 100 to 1000 nM.

For the compound `COc1cccc(F)c1-c1nccc(C(=O)Nc2cc(F)ccc2N2C[C@H]3C[C@@H]2CN3)c1F` [Example 2, N-(2-((1R,4R)-2,5-diazabicyclo[2.2.1]heptan-2-yl)-5-fluorophenyl)-3-fluoro-2-(2-fluoro-6-methoxyphenyl)isonicotinamide], the IC50 is less than 100 nM.

In the case of `COc1cccc(F)c1-c1cccc(C(=O)Nc2cc(F)ccc2N2C[C@H]3C[C@@H]2CN3)c1F` [Example 3, N-(2-((1R,4R)-2,5-diazabicyclo[2.2.1]heptan-2-yl)-5-fluorophenyl)-2,2′-difluoro-6′-methoxy-[1,1′-biphenyl]-3-carboxamide], the half-maximal inhibitory concentration (IC50) lay in the range of 100 to 1000 nM.

`COc1ccc(Cl)c(F)c1-c1nccc(C(=O)Nc2cc(F)ccc2N2C[C@H]3C[C@@H]2CN3)c1F` [Example 4, N-(2-((1R,4R)-2,5-diazabicyclo[2.2.1]heptan-2-yl)-5-fluorophenyl)-2-(3-chloro-2-fluoro-6-methoxyphenyl)-3-fluoroisonicotinamide] displayed an IC50 of 100 to 1000 nM.

Take `COc1ccc(F)c(F)c1-c1nccc(C(=O)Nc2cc(F)ccc2N2C[C@H]3C[C@@H]2CN3)c1F` [Example 5, N-(2-((1R,4R)-2,5-diazabicyclo[2.2.1]heptan-2-yl)-5-fluorophenyl)-2-(2,3-difluoro-6-methoxyphenyl)-3-fluoroisonicotinamide]: the IC50 was less than 100 nM.

In turn, `COc1cccc(Cl)c1-c1nccc(C(=O)Nc2cc(F)ccc2N2C[C@H]3C[C@@H]2CN3)c1F` [Example 6, N-(2-((1R,4R)-2,5-diazabicyclo[2.2.1]heptan-2-yl)-5-fluorophenyl)-2-(2-chloro-6-methoxyphenyl)-3-fluoroisonicotinamide] had a concentration for half-maximal inhibition (IC50) of 100 to 1000 nM.

On to `COc1cccc(F)c1-c1nccc(C(=O)Nc2ccc3c(nc(C)n3C)c2C2C[C@H]3C[C@@H]2CN3)c1F` (stereo partly drawn) [Example 7, N-(4-((1S,4S)-2-azabicyclo[2.2.1]heptan-5-yl)-1,2-dimethyl-1H-benzo[d]imidazol-5-yl)-3-fluoro-2-(2-fluoro-6-methoxyphenyl)isonicotinamide], for which the IC50 is less than 100 nM.

Consider `COc1cccc(F)c1-c1nccc(C(=O)Nc2ccc3c(nc(C)n3C)c2N2CCC(N)CC2)c1F` [Example 8, N-(4-(4-aminopiperidin-1-yl)-1,2-dimethyl-1H-benzo[d]imidazol-5-yl)-3-fluoro-2-(2-fluoro-6-methoxyphenyl)isonicotinamide], for which the IC50 was less than 100 nM.

`COc1cccc(F)c1-c1nccc(C(=O)Nc2ccc3c(nc(C)n3C)c2N2CCC[C@H]2CO)c1F` [Example 9, 3-fluoro-2-(2-fluoro-6-methoxyphenyl)-N-(4-((S)-2-(hydroxymethyl)pyrrolidin-1-yl)-1,2-dimethyl-1H-benzo[d]imidazol-5-yl)isonicotinamide] registered a concentration for half-maximal inhibition (IC50) of 100 to 1000 nM.

As for `COc1cccc(F)c1-c1nccc(C(=O)Nc2ccc3c(nc(C)n3C)c2N2CC[C@H](N)C2)c1F` [Example 10, N-(4-((S)-3-aminopyrrolidin-1-yl)-1,2-dimethyl-1H-benzo[d]imidazol-5-yl)-3-fluoro-2-(2-fluoro-6-methoxyphenyl)isonicotinamide], the concentration for half-maximal inhibition (IC50) is less than 100 nM.

In turn, `COCCn1c(C)nc2c(N3CC[C@H](N)C3)c(NC(=O)c3ccnc(-c4c(F)cccc4OC)c3F)ccc21` [Example 11, N-(4-((S)-3-aminopyrrolidin-1-yl)-1-(2-methoxyethyl)-2-methyl-1H-benzo[d]imidazol-5-yl)-3-fluoro-2-(2-fluoro-6-methoxyphenyl)isonicotinamide] displayed a half-inhibitory concentration (IC50) of less than 100 nM.

With `COc1cccc(F)c1-c1nccc(C(=O)Nc2ccc(-c3cnccc3C#N)cc2N2CC[C@H](N)C2)c1F` [Example 12, N-(2-((S)-3-aminopyrrolidin-1-yl)-4-(4-cyanopyridin-3-yl)phenyl)-3-fluoro-2-(2-fluoro-6-methoxyphenyl)isonicotinamide], the IC50 was less than 100 nM.

In turn, `COc1cccc(F)c1-c1nccc(C(=O)Nc2ccc(-c3cnccc3C#N)cc2N2C[C@@H](N)C[C@H]2CO)c1F` [Example 13, N-(2-((2S,4S)-4-amino-2-(hydroxymethyl)pyrrolidin-1-yl)-4-(4-cyanopyridin-3-yl)phenyl)-3-fluoro-2-(2-fluoro-6-methoxyphenyl)isonicotinamide] returned an IC50 of less than 100 nM.

`COc1cccc(F)c1-c1nccc(C(=O)Nc2ccc3c(nc(-c4ccncc4F)n3C)c2N2CC[C@H](N)C2)c1F` [Example 14, N-{4-[(3S)-3-aminopyrrolidin-1-yl]-2-(3-fluoropyridin-4-yl)-1-methyl-1,3-benzodiazol-5-yl}-3-fluoro-2-(2-fluoro-6-methoxyphenyl)pyridine-4-carboxamide]: the concentration for half-maximal inhibition (IC50) was less than 100 nM.

The values above are taken from patent US20250122174A1 (Shenzhen Yuanli Shenwan Innovative Medicine Co., Ltd., priority 2022, published 2025).
